Earlier results as cited in patent US20240115678A1, “PERSONALIZED […] CANCER THERAPY” (priority 2022, published 2024).

How the values were obtained:
[1] = tested on: monocytes derived from human peripheral blood
ovarian cancer = settings: whole trial
vascular cord formation = settings: in vivo administration
[2] = tested on: neuroblastoma, bladder cancer, pancreatic cancer, mesothelioma, hepatoma cells; settings: in vitro
[3] = tested on: human xenografted glioma, overian, and neuroblastoma cells; settings: immune deficient animals
[4] = tested on: rat PAIII androgen-independent syngeneic prostate cancer cell line; settings: daily intraperitoneal for 30 days, evaluation at day 40
[5] = tested on: T cell, B cell and NK cells; settings: high dose
[6] = tested on: battery of tumor cell lines; settings: in vitro, combined with AA
HUVEC = settings: in vitro
[7] = tested on: hypoxia inducible factor (HIF)-1
S-180 sarcoma = settings: parenteral administration
[8] = tested on: murine TECs and normal ECs; settings: with up-regulation of MDR1 mRNA
NK cells = settings: animal experiments

In the case of `COc1cc2nccc(Oc3ccc(NC(=O)Nc4ccc(F)cc4F)c(F)c3)c2cc1OC` [Ki8751], the “tumor CM-induced MDR1 up-regulation” value (human microvascular ECs) is listed as “blocked”.

For `CCOCc1nc2c(N)nc3ccccc3c2n1CC(C)(C)O` [R-848], the “FcgammaRI, FcgammaRIIa, and the common gamma-subunit” value [1] is listed as “upregulation”, the “inhibitory FcgammaRIIb molecule” value [1] is listed as “profound downregulation” and the FcgammaR-mediated cytokine production ([1]; 12 hour exposure) is listed as “increased”. The “antibody-dependent cellular cytotoxicity by monocytes” value ([1]; 12 hour exposure) was “increased”.

In the case of “bevacizumab plus chemotherapy: Bevacizumab (Avastin), antibody which binds VEGF, given with chemotherapy”, the “median progression free survival (PFS)” value (ovarian cancer; ovarian cancer patients) is given as 6.8 months, the “median OS” value (ovarian cancer) is given as 16.6 months and the “HR for overall survival” value (ovarian cancer; versus chemotherapy alone, 95 percent CI: 0.69, 1.14) is given as 0.89.

For `O=C1O[C@H]([C@@H](O)CO)C(O)=C1O` [AA, ascorbic acid], the “T cell activating ability of dendritic cells” value (dendritic cells) is given as “inhibit”, the vascular cord formation (vascular cord formation) is given as “suppressed vascular cord formation” and the neovascularization (neovascularization) is given as “suppressing neovascularization”. For the same molecule, the “cytotoxic effects on cancer cells” value [2] was “cytotoxic effects at pharmacologically achievable concentrations”, the “inhibition of xenografted cells” value [3] was “successful in vivo inhibition” and the “pulmonary and lymphatic metastasis” value [4] was “reduction in pulmonary and lymphatic metastasis”. The tumor growth [4] was “significant inhibition of tumor growth”, the NK cytotoxic activity [5] was “inhibits” and the IL-2 secretion ([5]; in vitro) was “inhibits”. The “T cell and B cell proliferative responses” value ([5]; in vitro) was “inhibits”, the “cytotoxicity of Docetaxel, Epirubicin, Irinotecan and 5-FU” value [6] was “Enhancement of cytotoxicity” and the HUVEC proliferation (HUVEC) was “inhibits”. The “activation of HIF-1” value [7] was “suppresses activation”, the “angiogenesis and pro-angiogenic factors bFGF, VEGF, and MMP-2” value (S-180 sarcoma) was “suppression” and the tumor growth (S-180 sarcoma) was “reduced tumor growth”.

For `CC(C)[C@]12O[C@H]1[C@@H]1O[C@]13[C@]1(O[C@H]1C[C@H]1C4=C(CC[C@@]13C)C(=O)OC4)[C@@H]2O` [triptolide], the “effect on Treg cells” value (Treg cells) is given as “inhibit Treg cells”.

In the case of `Nc1ccn([C@@H]2O[C@H](CO)[C@@H](O)C2(F)F)c(=O)n1` [gemcitabine], the “effect on Treg cells” value (Treg cells) is listed as “inhibit Treg cells”.

For `O=P1(N(CCCl)CCCl)NCCCO1` (stereo not drawn) [cyclophosphamide], the “effect on Treg cells” value (Treg cells) is listed as “inhibit Treg cells”.

In the case of `CC(=O)O[C@H]1C(=O)[C@@]2(C)[C@H]([C@H](OC(=O)c3ccccc3)[C@]3(O)C[C@H](OC(=O)[C@H](O)[C@@H](NC(=O)c4ccccc4)c4ccccc4)C(C)=C1C3(C)C)[C@]1(OC(C)=O)CO[C@@H]1C[C@@H]2O` [paclitaxel], the “resistance of TECs compared with normal ECs” value [8] is given as “more resistant”.

In the case of Poly (IC), the “effect on Herceptin activity” value (NK cells) is given as “augmentation of Herceptin activity”.

In the case of arsenic trioxide, the “effect on Treg cells” value (Treg cells) is given as “inhibit Treg cells”.

B1: IL-12: stimulator of NK cells (protein, UniProt P29459 23-219; P29460 23-328, looked up)
Interleukin-12 subunit alpha: RNLPVATPDPGMFPCLHHSQNLLRAVSNMLQKARQTLEFYPCTSEEIDHEDITKDKTSTVEACLPLELTKNESCLNSRETSFITNGSCLASRKTSFMMALCLSSIYEDLKMYQVEFKTMNAKLLMDPKRQIFLDQNMLAVIDELMQALNFNSETVPQKSSLEEPDFYKTKIKLCILLHAFRIRAVTIDRVMSYLNAS
Interleukin-12 subunit beta: IWELKKDVYVVELDWYPDAPGEMVVLTCDTPEEDGITWTLDQSSEVLGSGKTLTIQVKEFGDAGQYTCHKGGEVLSHSLLLLHKKEDGIWSTDILKDQKEPKNKTFLRCEAKNYSGRFTCWWLTTISTDLTFSVKSSRGSSDPQGVTCGAATLSAERVRGDNKEYEYSVECQEDSACPAAEESLPIEVMVDAVHKLKYENYTSSFFIRDIIKPDPPKNLQLKPLKNSRQVEVSWEYPDTWSTPHSYFSLTFCVQVQGKSKREKKDRVFTDKTSATVICRKNASISVRAQDRYYSSSWSEWASVPCS
In the case of B1, the “effect on Herceptin activity” value (NK cells) is listed as “augmentation of Herceptin activity”.
